# According to patent US12102633B2, “Spirolactone compounds” (Quixgen, Inc., priority 2017, dated 2024):
# Legend:
# 3T3-L1 adipocytes = assay: Lipogenesis of 3T3-L1 adipocytes; type: cell-based; details: Mus musculus, TG readout, read-out: LG-3T3 IC50
# Method: 3T3-L1 fibroblast cells (Zen-Bio) were grown in 96-well culture microplate (Corning) with growth media to around 90-100% confluency. Culture media was changed to differentiation media (growth media supplemented with 3-Isobutyl-1-Methylxanthine 500 μM, Dexamethasone 1 μM, insulin 10 μg/mL, and rosiglitazone 2 μM) plus serially diluted compounds prepared in DMSO (1:1000 dilution). After incubation for 2 days, media was changed to maintenance media (growth media supplemented with insulin 10 μg/mL) plus serially diluted compounds prepared in DMSO (1:1000 dilution) for around 1 week with media changed every 2 days. Upon completion of the treatment, culture media are discarded and 200 μL 0.01% SDS was added to each well and shaken for 1 hour to lyse the cells. Cell lysates were then transferred to 400 μL Folch's solution (chloroform: methanol=2:1) and mixed well. After centrifuge at 2,000 rpm for 20 min, 200 μL of the lower organic phase was transferred to a plate with 10 μL sample buffer (chloroform:Triton-100=3:1). Samples were blown dried under nitrogen and 200 μL triglyceride (TG) quantification reagent (Thermo Fisher Scientific) was added, mixed, and incubated at 37° C. for 30 min. TG concentration was determined by reading absorbance at 535 nm (Dynex MRX^e Magellan Biosciences) and calculated from standard curve.
# Human sebocytes = assay: Proliferation of human sebocytes; type: cell-based; details: 24 hours, MTT, read-out: AP-Sebo IC50
# Method: Human sebocytes (Celprogen) and keratinocytes (ATCC) were grown in 96-well culture microplate (Coming) with growth media to around 50% confluency. Media was changed to growth media mixed with serially diluted compounds in DMSO (1:1000 dilution). After treatment for 24 hours, media was changed to 100 μL phenol red free DMEM and cell numbers were quantitated by using Vybrant® MTT Cell Proliferation Assay Kit (Molecular Probes). Ten μL of 12 mM MTT stock solution was added to each well and the microplate was incubated at 37° C. for 4 hours. Then 100 μL of the SDS-HCl solution was added to each well and mixed thoroughly using a pipette. The microplate was incubated at 37° C. for 4 hours in a cell culture incubator. The microplate was mixed again using a pipette and absorbance was read at 570 nm (Dynex MRX^e Magellan Biosciences). Effect of compounds on proliferation of human keratinocytes was calculated by % of DMSO vehicle control.
# [1] = Plasma protein binding (human); type: in vitro ADME; details: % free, read-out: PPB (h/m) % free, human
# Method: (§1) The data in Table 5 were obtained by following the methods disclosed in this application and/or those standard techniques known in the art. ACC enzyme activities were measured according to Biological Examples 1 and 2; Malonyl-CoA in sebocytes were measured according to Biological Example 4; Effect on lipogenesis of 3T3-L1 adipocytes were measured according to Biological Example 7; Effect on lipogenesis of sebocytes were measured according to Biological Example 5; Effect on proliferation of sebocytes were measured according to Biological Example 6; Mouse PK were measured according to Biological Example 10; and Plasma protein binding (human or mouse) were measured by standard technique.
# [2] = Plasma protein binding (mouse); type: in vitro ADME; details: % free, read-out: PPB (h/m) % free, mouse
# Method: as §1
Structure (SMILES),IC50 (3T3-L1 adipocytes) [nM],IC50 (Human sebocytes) [nM],fraction unbound [1],fraction unbound [2]
"COc1cc(C(=O)N2CCC3(CC2)Cc2ccc(Nc4ccnn4C)cc2C(=O)O3)nc2c(OC)cccc12 [Example 6, 1′-(4,8-dimethoxyquinoline-2-carbonyl)-7-((1-methyl-1H-pyrazol-5-yl)amino)spiro[isochroman-3,4′-piperidin]-1-one]",21.9,2.5,0.0036,0.0073
"COc1cc(C(=O)N2CCC3(CC2)Cc2ccc(C(C)C)cc2C(=O)O3)nc2c(OC)cccc12 [Example 2, 1′-(4,8-dimethoxyquinoline-2-carbonyl)-7-isopropylspiro[isochroman-3,4′-piperidin]-1-one]",0.8,57.1,0.0037,0.0028
